According to patent publication US20070197517A1, “Combination therapy for hyperproliferative disease” (Pfizer Inc., priority 2002, published 2007):
Structures can show the parent of a compound that is named as a salt.

Key:
[1] = tested on: Human Colon Carcinoma Colo-205; test: Anti-tumor efficacy of CPT-11 with Compound X, s.c. Colo-205 xenograft; assay type: in vivo, Nu/Nu mice; conditions: vs Gelucire vehicle day 12
Procedure: (§1) Exponentially grown human colon carcinoma Colo-205 cells [RPMI 1640 with 10% FBS, and pen/strep (Gibco)] were harvested and inoculated subcutaneously (5×10^6 cells/mouse, 200 μl) into the right flank of female Nu/Nu mice (˜20 grams; Charles River Laboratories, MA). 9 days after inoculation, tumor-bearing animals of approximately 150 mm^3 in size were separated into groups of 7 animals each.
(§2) CPT-11 (Camptosar®, Pharmacia & Upjohn, Kalamazoo, Mich.) was formulated in 0.9% saline and dosed iv×1 at 25 and 75 mg/kg. One group received 0.9% saline only (200 μl/animal, iv×1) which served as the control for the experiment. The mesylate salt of 3-(4-Bromo-2,6-difluoro-benzyloxy)-5-[3-(4-pyrrolidin-1-yl-butyl)-ureido}-isothiazole-4-carboxylic acid amide was formulated in 5% Gelucire (Gattefosse Inc., France) and dosed po, qd×12 at 25, 50 and 100 mg/kg. One group received 5% Gelucire only, (200 μl/animal, po, qd×12) which served as the vehicle control for the experiment.
(§3) Animal body weight and tumor measurements were obtained at regular intervals. Tumor volume (mm^3) was calculated using the formula length (mm)×width (mm)×width (mm)×0.5.
(§4) Mean tumor volume in Gelucire vehicle group on day 12 was used for the % growth inhibition calculation.

[2] = tested on: Human Non Small Cell Lung Carcinoma EBC-1; test: Anti-tumor efficacy of carboplatin with Compound X, s.c. EBC-1 xenograft; assay type: in vivo; conditions: vs saline vehicle day 14
Procedure: as §1, with “non-small cell lung” for “colon”, “EBC-1” for “Colo-205”, “(10^7” for “(5×10^6”, “7” for “9”, “175” for “150”, “8” for “7”
Carboplatin (Bristol Oncology Products, Princeton, N.J.) was formulated in 0.9% saline and dosed ip., q3d×4 at 25 and 50 mg/kg. One group received 0.9% saline only (200 μl/animal, ip, q3d×4) which served as the control for the experiment. […] One group received 5% Gelucire only, (200 μl/animal, po, qd×14) which served as the vehicle control for the experiment.
as §3
Mean tumor volume in saline vehicle group on day 14 was used for the % growth inhibition calculation.

[3] = tested on: Human Colon Carcinoma Colo-205; test: Anti-tumor efficacy of 5-FU with Compound X, s.c. Colo-205 xenograft; assay type: in vivo; conditions: vs Gelucire vehicle day 12
Procedure: as §1
as §2, with “5-FU (ICN Pharmaceuticals, Inc., Costa Mesa, Calif.)” for “CPT-11 (Camptosar®, Pharmacia & Upjohn, Kalamazoo, Mich.)”, “100” for “75”
as §3, §4

[4] = tested on: Human Non Small Cell Lung Carcinoma EBC-1; test: Anti-tumor efficacy of paclitaxel (Taxol) with Compound X, s.c. EBC-1 xenograft; assay type: in vivo, Nu/Nu mice; conditions: vs Gelucire vehicle day 15
Procedure: as §1, with “non-small cell lung” for “colon”, “EBC-1” for “Colo-205”, “[(RPMI” for “[RPMI”, “s.c. (10^7” for “subcutaneously (5×10^6”, “MA.). 7” for “MA). 9”, “5” for “7”
Compound X (the mesylate salt of 3-(4-Bromo-2,6-difluoro-benzyloxy)-5-[3-(4-pyrrolidin-1-yl-butyl)-ureido}-isothiazole-4-carboxylic acid amide) was formulated in 5% Gelucire (Gattefosse Inc. France) and dosed po., qd×15 at 12.5 and 100 mg/kg. Taxol® (MeadJohnson Oncology Products, Princeton, N.J.) was formulated in 0.9% sterile saline and dosed ip., qd×5 at 20 mg/kg. For control purposes one group received 5% Gelucire only (200 μl/animal, po, qd×15).
as §3
Mean tumor volume in Gelucire vehicle group on day 15 was used for the % growth inhibition calculation.

[5] = tested on: Human Breast Carcinoma MDA-MB-231; test: Anti-tumor efficacy of doxorubicin with Compound X, s.c. MDA-MB-231 xenograft; assay type: in vivo, Nu/Nu mice; conditions: vs Gelucire vehicle day 24
Procedure: Exponentially grown human breast carcinoma MDA-MB-231 cells [DMEM with 10% FBS, and pen/strep (Gibco)] were harvested and inoculated subcutaneously (3-5×10^6 cells/mouse, 200 μl) into the right flank of female Nu/Nu mice (˜20 grams; Charles River Laboratories, MA). 36 days after inoculation, tumor-bearing animals of approximately 75 mm^3 in size were separated into control (n=19) or experimental groups of animals (n=7 each).
[…] The mesylate salt of 3-(4-Bromo-2,6-difluoro-benzyloxy)-5-[3-(4-pyrrolidin-1-yl-butyl)-ureido}-isothiazole-4-carboxylic acid amide was formulated in 5% Gelucire (Gattefosse Inc., France) and dosed po, qd×24 at 12.5, 25, 50 and 100 mg/kg. One group received 5% Gelucire only, (200 μl/animal, po, qd×24) which served as the vehicle control for the experiment.
as §3
Mean tumor volume in Gelucire vehicle group on day 24 was used for the % growth inhibition calculation.

[6] = tested on: Human Pancreatic Carcinoma Capan-1; test: Anti-tumor efficacy of gemcitabine hydrochloride and Compound X, s.c. Capan-1 xenograft; assay type: in vivo, Nu/Nu mice; conditions: for % Tumor Growth Inhibition: vs Gelucire vehicle day 13
Procedure: (10^7 cells/mouse, 200 μl) into the right flank of female Nu/Nu mice (˜20 grams; […] An overview of each of the groups and the treatment is set forth below in the table. [table] Animal body weight and tumor measurements were obtained at regular intervals. […] Mean tumor volume in Gelucire vehicle group on day 13 was used for % growth inhibition calculation.

[7] = Compound X 25 mg/kg, po, qd × 12
[8] = Compound X 50 mg/kg, po, qd × 12
[9] = Compound X 100 mg/kg, po, qd × 12

CCc1c2c(nc3ccc(OC(=O)N4CCC(N5CCCCC5)CC4)cc13)-c1cc3c(c(=O)n1C2)COC(=O)[C@]3(O)CC [CPT-11, irinotecan HCl, reference compound]
% tumor growth ([1]; CPT-11 25 mg/kg, iv × 1, growth instead of inhibition): (7% Tumor Growth) | % Tumor Growth Inhibition ([1]; CPT-11 75 mg/kg, iv × 1): 5%

N.N.O=C([O-])C1(C(=O)[O-])CCC1.[Pt+2] [Carboplatin, cis-diammine-1,1-cyclobutanedicarboxylato-platinum II]
% Tumor Growth Inhibition ([2]; Carboplatin 25 mg/kg, ip, q3d × 4): 0% | % Tumor Growth Inhibition ([2]; Carboplatin 50 mg/kg, ip, q3d × 4): 31%

O=c1[nH]cc(F)c(=O)[nH]1 [Compound 5-FU, 5-fluorouracil, reference compound]
% Tumor Growth Inhibition ([3]; 5-FU 25 mg/kg, iv × 1): 24% | % Tumor Growth Inhibition ([3]; 5-FU 100 mg/kg, iv × 1): 59%

NC(=O)c1c(OCc2c(F)cc(Br)cc2F)nsc1NC(=O)NCCCCN1CCCC1 [Compound X, 3-(4-Bromo-2,6-difluoro-benzyloxy)-5-[3-(4-pyrrolidin-1-yl-butyl)-ureido}-isothiazole-4-carboxylic acid amide]
% Tumor Growth Inhibition [1, 7]: 9% | % Tumor Growth Inhibition [1, 8]: 28% | % Tumor Growth Inhibition [1, 9]: 66% | % Tumor Growth Inhibition ([4]; Compound X 12.5 mg/kg, po, qd × 15): 34% | % Tumor Growth Inhibition ([4]; Compound X 100 mg/kg, po, qd × 15): 72% | % Tumor Growth Inhibition [3, 7]: 21% | % Tumor Growth Inhibition [3, 8]: 47% | % Tumor Growth Inhibition [3, 9]: 64% | % tumor growth ([5]; Compound X 12.5 mg/kg, po, qd × 24, growth instead of inhibition): (10% tumor growth) | % Tumor Growth Inhibition ([5]; Compound X 25 mg/kg, po, qd × 24): 24% | % Tumor Growth Inhibition ([5]; Compound X 50 mg/kg, po, qd × 24): 46% | % Tumor Growth Inhibition ([5]; Compound X 100 mg/kg, po, qd × 24): 49% | % Tumor Growth Inhibition ([2]; Compound X 100 mg/kg, po, qd × 4): 67% | % Tumor Growth Inhibition ([6]; Group 2: Compound X 25 mg/kg, po, qd × 13): 16% | % Tumor Growth Inhibition ([6]; Group 3: Compound X 100 mg/kg, po, qd × 13): 46%

COc1cccc2c1C(=O)c1c(O)c3c(c(O)c1C2=O)C[C@@](O)(C(=O)CO)C[C@@H]3O[C@H]1C[C@H](N)[C@H](O)[C@H](C)O1 [Doxorubicin, reference compound]
% Tumor Growth Inhibition ([5]; Doxorubicin 2.5 mg/kg, ip × 1): 7% | % Tumor Growth Inhibition ([5]; Doxorubicin 10 mg/kg, ip × 1): 48%

Nc1ccn([C@@H]2O[C@H](CO)[C@@H](O)C2(F)F)c(=O)n1 [Gemcitabine HCl, Gemcitabine hydrochloride]
% Tumor Growth Inhibition ([6]; Group 4: Gemcitabine HCl 1 mg/kg, ip, q3d × 4): 0% | % Tumor Growth Inhibition ([6]; Group 5: Gemcitabine HCl 5 mg/kg, ip, q3d × 4): 26% | mean tumor regression ([6]; Group 6: Gemcitabine HCl 80 mg/kg, ip, q3d × 4, day 1 volume of group = 100%): 66% regression* | % Tumor Growth Inhibition ([6]; Group 6: Gemcitabine HCl 80 mg/kg, ip, q3d × 4): 83%

CC(=O)O[C@H]1C(=O)[C@@]2(C)[C@H]([C@H](OC(=O)c3ccccc3)[C@]3(O)C[C@H](OC(=O)[C@H](O)[C@@H](NC(=O)c4ccccc4)c4ccccc4)C(C)=C1C3(C)C)[C@]1(OC(C)=O)CO[C@@H]1C[C@@H]2O [Taxol ®, Paclitaxel, reference compound]
% Tumor Growth Inhibition ([4]; Taxol 20 mg/kg, ip, qd × 5): 75%
